What was measured:
[1] = standard pressure of about 760 mm Hg; cited from earlier work
[2] = Boiling point / liquid-gas phase transition temperature of core gases; assay type: physicochemical; conditions: interstitial pressure of 795 mm Hg; gas law approximation
Source text: Applicant's gaseous precursors include, for example, fluorinated carbons, perfluorocarbons, sulfur hexafluoride, perfluoro ethers and combinations thereof. As the stilled artisan will appreciate, a particular fluorinated compound, such as sulfur hexafluoride, a perfluorocarbon or a perfluoro ether, may exist in the liquid state when the compositions are first made, and are thus used as a gaseous precursor. Whether the fluorinated compound is a liquid generally depends on its liquid/gas phase transition temperature, or boiling point. For example, a preferred perfluorocarbon, perfluoropentane, has a liquid/gas phase transition temperature (boiling point) of 29.5° C. This means that perfluoropentane is generally a liquid at room temperature (about 25° C.), but is converted to a gas within the human body, the normal temperature of which is about 37° C., which is above the transition temperature of perfluoropentane. Thus, under normal circumstances, perfluoropentane is a gaseous precursor. As known to one skilled in the art, the effective boiling point of a substance may be related to the pressure to which that substance is exposed. This relationship is exemplified by the ideal gas law: PV=nRT, where P is pressure, V is volume, n is moles of substance, R is the gas constant, and T is temperature. […] Conversely, as pressure decreases, the effective boiling point decreases. […]

FC(F)(F)C(F)(F)C(F)(F)C(F)(F)C(F)(F)F [Perfluoropentane]
liquid/gas phase transition temperature (boiling point) [1]: 29.5 °C | boiling point at interstitial pressure [2]: about 30.5 °C
